Results from patent publication US12077503B2, “Substituted cyclic amides and their use as herbicides” (FMC CORPORATION, priority 2015, dated 2024).

Tests used:
Type in all cases: in vivo
[1] = system: redroot pigweed (Amaranthus retroflexus); test: Test G Post-Emergence Protocol; settings: Amaranthus retroflexus, post-emergence, 312 h; for pest or weed control at 15.625 g/ha: 15.625 g ai/ha, evaluated after 13 days (100=total damage to plant; 0=no damage to plant), read-out: Pigweed, Redroot damage rating; for pest or weed control at 62.5 g/ha: 62.5 g ai/ha, read-out: Pigweed, Redroot damage rating (100=total damage to plant; 0=no damage to plant); for pest or weed control at 62.5 g/ha / pest or weed control at 250 g/ha: evaluated after 13 days; for pest or weed control at 250 g/ha: 250 g ai/ha, read-out: damage to plant, Pigweed, Redroot (100=total damage to plant; 0=no damage to plant)
Outline: (§1)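 Pot-grown seedlings, 8 days old, raised in a glasshouse at 24/16 °C day/night with 14 h light and 65% humidity, were sprayed post-emergence with test compound in acetone/water (50:50) plus 0.5% Tween 20 at 15.625, 62.5 or 250 g/ha. Damage was scored visually 13 days later on a 0–100 scale (100 = total damage).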

[2] = system: ivy-leaved morning glory (Ipomoea hederacea); test: Test G Post-Emergence Protocol; settings: Ipomoea, post-emergence, 312 h; for pest or weed control at 15.625 g/ha: 15.625 g ai/ha, evaluated after 13 days (100=total damage to plant; 0=no damage to plant), read-out: Morningglory, Ivy-leaved damage rating; for pest or weed control at 62.5 g/ha: 62.5 g ai/ha, read-out: Morningglory, Ivy-leaved damage rating (100=total damage to plant; 0=no damage to plant); for pest or weed control at 62.5 g/ha / pest or weed control at 250 g/ha: evaluated after 13 days; for pest or weed control at 250 g/ha: 250 g ai/ha, read-out: damage to plant, Morningglory, Ivy-leaved (100=total damage to plant; 0=no damage to plant)
Outline: as §1

[3] = system: giant foxtail (Setaria faberi); test: Test G Post-Emergence Protocol; settings: Setaria faberi, post-emergence, 312 h; for pest or weed control at 15.625 g/ha: 15.625 g ai/ha, evaluated after 13 days (100=total damage to plant; 0=no damage to plant), read-out: Foxtail, Giant damage rating; for pest or weed control at 62.5 g/ha: 62.5 g ai/ha, read-out: Foxtail, Giant damage rating (100=total damage to plant; 0=no damage to plant); for pest or weed control at 62.5 g/ha / pest or weed control at 250 g/ha: evaluated after 13 days; for pest or weed control at 250 g/ha: 250 g ai/ha, read-out: damage to plant, Foxtail, Giant (100=total damage to plant; 0=no damage to plant)
Outline: as §1

[4] = system: velvetleaf (Abutilon theophrasti); test: Test G Post-Emergence Protocol; settings: Abutilon theophrasti, post-emergence, 312 h; for pest or weed control at 15.625 g/ha: 15.625 g ai/ha, evaluated after 13 days (100=total damage to plant; 0=no damage to plant), read-out: Velvetleaf damage rating; for pest or weed control at 62.5 g/ha: 62.5 g ai/ha, read-out: Velvetleaf damage rating (100=total damage to plant; 0=no damage to plant); for pest or weed control at 62.5 g/ha / pest or weed control at 250 g/ha: evaluated after 13 days; for pest or weed control at 250 g/ha: 250 g ai/ha, read-out: damage to plant, Velvetleaf (100=total damage to plant; 0=no damage to plant)
Outline: as §1

corn (Zea mays) [5] = test: Test G Post-Emergence Protocol; settings: Zea mays, post-emergence, 312 h; for plant injury at 15.625 g/ha: 15.625 g ai/ha, evaluated after 13 days (100=total damage to plant; 0=no damage to plant), read-out: Corn damage rating; for plant injury at 62.5 g/ha: 62.5 g ai/ha, read-out: Corn damage rating (100=total damage to plant; 0=no damage to plant); for plant injury at 62.5 g/ha / plant injury at 250 g/ha: evaluated after 13 days; for plant injury at 250 g/ha: 250 g ai/ha, read-out: damage to plant, Corn (100=total damage to plant; 0=no damage to plant)
Outline: as §1

[6] = system: barnyardgrass (Echinochloa crus-galli); test: Test G Post-Emergence Protocol; settings: Echinochloa crus-galli, post-emergence, 312 h; for pest or weed control at 15.625 g/ha: 15.625 g ai/ha, evaluated after 13 days (100=total damage to plant; 0=no damage to plant), read-out: Barnyardgrass damage rating; for pest or weed control at 62.5 g/ha: 62.5 g ai/ha, read-out: Barnyardgrass damage rating (100=total damage to plant; 0=no damage to plant); for pest or weed control at 62.5 g/ha / pest or weed control at 250 g/ha: evaluated after 13 days; for pest or weed control at 250 g/ha: 250 g ai/ha, read-out: damage to plant, Barnyardgrass (100=total damage to plant; 0=no damage to plant)
Outline: as §1

[7] = system: redroot pigweed (Amaranthus retroflexus); test: Test G Pre-Emergence Protocol; settings: Amaranthus retroflexus, pre-emergence, 312 h, evaluated after 13 days; for pest or weed control at 15.625 g/ha: 15.625 g ai/ha; for pest or weed control at 15.625 g/ha / pest or weed control at 250 g/ha: read-out: Pigweed, Redroot damage rating (100=total damage to plant; 0=no damage to plant); for pest or weed control at 62.5 g/ha: 62.5 g ai/ha, 100=total damage to plant, 0=no damage to plant, read-out: plant damage rating, Pigweed, Redroot; for pest or weed control at 250 g/ha: 250 g ai/ha
Outline: (§2)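 Herbicidal effect was rated 13 days post-application on a scale where 100 equals total damage. Spraying took place the day after sowing, using 15.625, 62.5 or 250 g/ha of compound in a 50:50 acetone/water solution with 0.5% Tween 20.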

[8] = system: ivy-leaved morning glory (Ipomoea hederacea); test: Test G Pre-Emergence Protocol; settings: Ipomoea, pre-emergence, 312 h, evaluated after 13 days; for pest or weed control at 15.625 g/ha: 15.625 g ai/ha, read-out: Morning-glory, Ivy-leaved damage rating (100=total damage to plant; 0=no damage to plant); for pest or weed control at 62.5 g/ha: 62.5 g ai/ha, 100=total damage to plant, 0=no damage to plant, read-out: plant damage rating, Morningglory, Ivy-leaved; for pest or weed control at 250 g/ha: 250 g ai/ha, read-out: Morningglory, Ivy-leaved damage rating (100=total damage to plant; 0=no damage to plant)
Outline: as §2

[9] = system: giant foxtail (Setaria faberi); test: Test G Pre-Emergence Protocol; settings: Setaria faberi, pre-emergence, 312 h, evaluated after 13 days; for pest or weed control at 15.625 g/ha: 15.625 g ai/ha; for pest or weed control at 15.625 g/ha / pest or weed control at 250 g/ha: read-out: Foxtail, Giant damage rating (100=total damage to plant; 0=no damage to plant); for pest or weed control at 62.5 g/ha: 62.5 g ai/ha, 100=total damage to plant, 0=no damage to plant, read-out: plant damage rating, Foxtail, Giant; for pest or weed control at 250 g/ha: 250 g ai/ha
Outline: as §2

[10] = system: velvetleaf (Abutilon theophrasti); test: Test G Pre-Emergence Protocol; settings: Abutilon theophrasti, pre-emergence, 312 h, evaluated after 13 days; for pest or weed control at 15.625 g/ha: 15.625 g ai/ha; for pest or weed control at 15.625 g/ha / pest or weed control at 250 g/ha: read-out: Velvetleaf damage rating (100=total damage to plant; 0=no damage to plant); for pest or weed control at 62.5 g/ha: 62.5 g ai/ha, 100=total damage to plant, 0=no damage to plant, read-out: plant damage rating, Velvetleaf; for pest or weed control at 250 g/ha: 250 g ai/ha
Outline: as §2

corn (Zea mays) [11] = test: Test G Pre-Emergence Protocol; settings: Zea mays, pre-emergence, 312 h, evaluated after 13 days; for plant injury at 15.625 g/ha: 15.625 g ai/ha; for plant injury at 15.625 g/ha / plant injury at 250 g/ha: read-out: Corn damage rating (100=total damage to plant; 0=no damage to plant); for plant injury at 62.5 g/ha: 62.5 g ai/ha, 100=total damage to plant, 0=no damage to plant, read-out: plant damage rating, Corn; for plant injury at 250 g/ha: 250 g ai/ha
Outline: as §2

[12] = system: barnyardgrass (Echinochloa crus-galli); test: Test G Pre-Emergence Protocol; settings: Echinochloa crus-galli, pre-emergence, 312 h, evaluated after 13 days; for pest or weed control at 15.625 g/ha: 15.625 g ai/ha, read-out: Barnyard grass damage rating (100=total damage to plant; 0=no damage to plant); for pest or weed control at 62.5 g/ha: 62.5 g ai/ha, 100=total damage to plant, 0=no damage to plant, read-out: plant damage rating, Barnyardgrass; for pest or weed control at 250 g/ha: 250 g ai/ha, read-out: Barnyardgrass damage rating (100=total damage to plant; 0=no damage to plant)
Outline: as §2

SMILES	pest or weed control at 15.625 g/ha [1]	pest or weed control at 62.5 g/ha [1]	pest or weed control at 250 g/ha [1]	pest or weed control at 15.625 g/ha [2]	pest or weed control at 62.5 g/ha [2]	pest or weed control at 250 g/ha [2]	pest or weed control at 15.625 g/ha [3]	pest or weed control at 62.5 g/ha [3]	pest or weed control at 250 g/ha [3]	pest or weed control at 15.625 g/ha [4]	pest or weed control at 62.5 g/ha [4]	pest or weed control at 250 g/ha [4]	plant injury at 15.625 g/ha (corn (Zea mays) [5])	plant injury at 62.5 g/ha (corn (Zea mays) [5])	plant injury at 250 g/ha (corn (Zea mays) [5])	pest or weed control at 15.625 g/ha [6]	pest or weed control at 62.5 g/ha [6]	pest or weed control at 250 g/ha [6]	pest or weed control at 15.625 g/ha [7]	pest or weed control at 62.5 g/ha [7]	also measured
CN1C[C@@H](c2ccc(C(F)(F)F)cc2)[C@H](C(=O)Nc2[nH]ncc2C#N)C1=O (racemic) [Compound 1551]	0%	0%	0%	0%	0%	0%	0%	0%	0%	0%	0%	0%	0%	0%	10%	0%	0%	0%	0%	0%	pest or weed control at 250 g/ha [7]: 0%; pest or weed control at 15.625 g/ha [8]: 0%; pest or weed control at 62.5 g/ha [8]: 0%; pest or weed control at 250 g/ha [8]: 0%; pest or weed control at 15.625 g/ha [9]: 0%; pest or weed control at 62.5 g/ha [9]: 0%; pest or weed control at 250 g/ha [9]: 0%; pest or weed control at 15.625 g/ha [10]: 0%; pest or weed control at 62.5 g/ha [10]: 0%; pest or weed control at 250 g/ha [10]: 0%; plant injury at 15.625 g/ha (corn (Zea mays) [11]): 0%; plant injury at 62.5 g/ha (corn (Zea mays) [11]): 0%; plant injury at 250 g/ha (corn (Zea mays) [11]): 0%; pest or weed control at 15.625 g/ha [12]: 0%; pest or weed control at 62.5 g/ha [12]: 0%; pest or weed control at 250 g/ha [12]: 0%
CN1C[C@H](c2ccc(C(F)(F)F)cc2)[C@@H](C(=O)Nc2cnccc2O)C1=O (racemic) [Compound 1466]	10%	30%	80%	0%	10%	10%	0%	10%	30%	0%	0%	0%	0%	10%	20%	0%	0%	20%	0%	0%	pest or weed control at 250 g/ha [7]: 0%; pest or weed control at 15.625 g/ha [8]: 0%; pest or weed control at 62.5 g/ha [8]: 0%; pest or weed control at 250 g/ha [8]: 0%; pest or weed control at 15.625 g/ha [9]: 0%; pest or weed control at 62.5 g/ha [9]: 0%; pest or weed control at 250 g/ha [9]: 0%; pest or weed control at 15.625 g/ha [10]: 0%; pest or weed control at 62.5 g/ha [10]: 0%; pest or weed control at 250 g/ha [10]: 0%; plant injury at 15.625 g/ha (corn (Zea mays) [11]): 0%; plant injury at 62.5 g/ha (corn (Zea mays) [11]): 0%; plant injury at 250 g/ha (corn (Zea mays) [11]): 0%; pest or weed control at 15.625 g/ha [12]: 0%; pest or weed control at 62.5 g/ha [12]: 0%; pest or weed control at 250 g/ha [12]: 0%
